Experimental data taken from ChEMBL document CHEMBL4616607, “3D proteome-wide scale screening and activity evaluation of a new ALKBH5 inhibitor in U87 glioblastoma cell line” (Bioorg Med Chem, 2020).
The source made the active and inactive calls. No cut-off for these calls is given here.

Assays:
NCI-H460 [1] = assay: Antiinvasive activity against human H460 cells assessed as reduction in cell invasion measured after 24 hrs using Diff-quick staining by light microscopy based Boyden chamber assay; type: functional
A549 [2] = assay: Cytotoxicity against human A549 cells assessed as reduction in cell viability after 24 hrs by SRB assay; type: functional, cell-based
NCI-H460 [3] = assay: Cytotoxicity against human H460 cells assessed as effect on cell viability at 1 to 50 uM measured after 24 hrs by SRB assay; type: functional, cell-based
U-87 MG [4] = assay: Effect on CD73 mRNA expression in human U87MG cells at 10 to 25 uM measured after 1 to 6 hrs by RT-PCR analysis; type: functional, cell-based; conditions: U-87MG ATCC
A549 [5] = assay: Antiinvasive activity against human A549 cells assessed as reduction in cell invasion measured after 24 hrs using Diff-quick staining by light microscopy based Boyden chamber assay; type: functional
U-87 MG [6] = assay: Cytotoxicity against human U87MG cells assessed as effect on cell viability at 1 to 50 uM measured after 24 hrs by SRB assay; type: functional, cell-based; conditions: U-87MG ATCC
[7] = target: RNA demethylase ALKBH5 (Homo sapiens) (UniProt Q6P6C2); assay: Inhibition of ALKBH5 demethylase activity in human U87MG cells assessed as decrease in CD73 expression measured after 1 to 24 hrs by Western blot analysis; type: cell-based; conditions: U-87MG ATCC
Sequence of RNA demethylase ALKBH5 (Homo sapiens) (Q6P6C2 2-394 limits assumed): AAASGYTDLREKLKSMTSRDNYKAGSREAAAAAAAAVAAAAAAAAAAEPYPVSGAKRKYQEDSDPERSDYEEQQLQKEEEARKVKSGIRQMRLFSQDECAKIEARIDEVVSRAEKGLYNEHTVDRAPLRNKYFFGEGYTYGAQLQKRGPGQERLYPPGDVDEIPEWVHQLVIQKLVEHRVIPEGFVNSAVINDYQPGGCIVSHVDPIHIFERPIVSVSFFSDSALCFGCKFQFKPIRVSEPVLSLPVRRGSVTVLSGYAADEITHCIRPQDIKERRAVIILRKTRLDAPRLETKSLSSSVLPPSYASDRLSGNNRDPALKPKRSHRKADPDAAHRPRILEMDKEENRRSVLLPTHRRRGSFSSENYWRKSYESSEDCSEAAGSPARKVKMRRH

A549 [8] = assay: Cytotoxicity against human A549 cells assessed as reduction in cell viability measured after 24 hrs by MTT assay; type: functional, cell-based
NCI-H460 [9] = assay: Cytotoxicity against human H460 cells assessed as effect on cell viability at 1 to 50 uM measured after 24 hrs by MTT assay; type: functional, cell-based
U-87 MG [10] = assay: Antimigratory activity against human U87MG cells assessed as inhibition of cell migration measured after 6 hrs by scratch wound healing assay; type: functional, cell-based, U-87MG ATCC
NCI-H460 [11] = assay: Antimigratory activity against human H460 cells assessed as inhibition of cell migration measured after 24 hrs by scratch wound healing assay; type: functional, cell-based
[12] = target: RNA demethylase ALKBH5 (Homo sapiens) (UniProt Q6P6C2); assay: Inhibition of ALKBH5 demethylase activity in human U87MG cells assessed as decrease in CD73 expression at 10 uM measured after 2 hrs by Western blot analysis; type: cell-based; conditions: U-87MG ATCC
[13] = target: RNA demethylase ALKBH5 (Homo sapiens) (UniProt Q6P6C2); assay: Inhibition of human recombinant ALKBH5 demethylase activity assessed as increase in methylated 6A-RNA level at 10 to 25 uM incubated for 30 min by dot blot analysis relative to control
U-87 MG [14] = assay: Cytotoxicity against human U87MG cells assessed as effect on cell viability at 1 to 50 uM measured after 24 hrs by MTT assay; type: functional, cell-based; conditions: U-87MG ATCC
[15] = target: RNA demethylase ALKBH5 (Homo sapiens) (UniProt Q6P6C2); assay: Inhibition of human recombinant ALKBH5 demethylase activity assessed as increase in methylated 6A-RNA level incubated for 30 min by dot blot analysis
A549 [16] = assay: Antimigratory activity against human A549 cells assessed as reduction in cell migration at 25 uM measured after 24 hrs by scratch wound healing assay; type: functional, cell-based
U-87 MG [17] = assay: Antiinvasive activity against human U87MG cells assessed as reduction in cell invasion at 25 to 50 uM measured after 24 hrs using Diff-quick staining by light microscopy based Boyden chamber assay relative to control; type: functional, U-87MG ATCC; parameters: scale not given: the % may be the effect or the level left
U-87 MG [18] = assay: Antiinvasive activity against human U87MG cells assessed as reduction in cell invasion measured after 24 hrs using Diff-quick staining by light microscopy based Boyden chamber assay; type: functional, U-87MG ATCC
[19] = target: RNA demethylase ALKBH5 (Homo sapiens) (UniProt Q6P6C2); assay: Inhibition of ALKBH5 demethylase activity in human U87MG cells assessed as decrease in CD73 expression at 10 uM measured after 1 hr by Western blot analysis; type: cell-based; conditions: U-87MG ATCC

## NC1=N[C@H](O)[C@H]2[C@H]3O[C@]4(O)O[C@@H]([C@@H](O)[C@@]2(N1)[C@@H]4O)[C@]3(O)CO
NCI-H460 [1]
  Activity: Dose-dependent effect

## CCCc1c(C)nc2c3ccccc3oc(=S)n12
A549 [2]
  Activity: Dose-dependent effect
NCI-H460 [3]
  Activity: inactive
U-87 MG [4]
  Activity: inactive
A549 [5]
  Activity: Dose-dependent effect
A549 [5]; A549, 24 h
  IC50: 26.2 µM
NCI-H460 [1]
  Activity: Dose-dependent effect
NCI-H460 [1]; NCI-H460, 24 h
  IC50: 17.8 µM
U-87 MG [6]
  Activity: inactive
[7]
  inhibition: Dose-dependent effect
A549 [8]
  Activity: Dose-dependent effect
NCI-H460 [9]
  Activity: inactive
U-87 MG [10]
  IC50: 11 µM
U-87 MG [10]; U-87MG ATCC
  inhibition: Dose-dependent effect
NCI-H460 [11]
  inhibition: Dose-dependent effect
NCI-H460 [11]; NCI-H460, 24 h
  IC50: 10.1 µM
[12]
  inhibition: Active
[13]
  fold change (FC): 3
U-87 MG [14]
  Activity: inactive
[15]
  inhibition: Dose-dependent effect
A549 [16]
  Activity: inactive
U-87 MG [17]
  Activity: 90%
U-87 MG [18]
  IC50: 2.48 µM
U-87 MG [18]; U-87MG ATCC
  Activity: Dose-dependent effect
[19]
  inhibition: Active
